Assay results published in PubChem BioAssay (NCI).
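Five concentrations, 48 hours, 96-well plates. Definition used: TGI = concentration required for complete inhibition of growth.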

Columns and labels:
Assay in all cases: NCI tumour cell line growth inhibition, 48 h
[1] = test system: LXFL 529 NSCLC
[2] = test system: SF-539 CNS
[3] = test system: RPMI-8226 leukemia
[4] = test system: DMS 273 small cell lung
[5] = test system: HOP-18 NSCLC
[6] = test system: M19-MEL melanoma
[7] = test system: OVCAR-4 ovarian
[8] = test system: OVCAR-3 ovarian
[9] = test system: KM20L2 colon
[10] = test system: XF 498 CNS
[11] = test system: DMS 114 small cell lung
[12] = test system: DLD-1 colon
[13] = test system: CCRF-CEM leukemia
[14] = test system: SNB-78 CNS
[15] = test system: RXF-631 renal

Structure (SMILES) | TGI [1] [µM] | TGI [2] [µM] | TGI [3] [µM] | TGI [4] [µM] | TGI [5] [µM] | TGI [6] [µM] | TGI [7] [µM] | TGI [8] [µM] | TGI [9] [µM] | TGI [10] [µM] | TGI [11] [µM] | TGI [12] [µM] | TGI [13] [µM] | TGI [14] [µM] | TGI [15] [µM]
CCCc1c(C(=O)OCC)[nH]c(-c2ccc(-c3[nH]c(C(=O)OCC)c(CCC)c3C(=O)OCC)o2)c1C(=O)OCC | > 100 | > 100 | > 100 | > 100 | > 100 | > 100 | > 100 | > 100 | > 100 | > 100 | > 100 | > 100 | > 100 | > 100 | –
COc1cc([C@@H]2c3cc4c(cc3[C@@H](NCc3ccccc3)C3COC(=O)[C@@H]32)OCO4)cc(OC)c1O (stereo not given in full) | > 100 | 26.7 | 21.2 | 36.7 | – | > 100 | > 75.5 | 42.5 | 85.6 | 41 | > 64.5 | > 100 | > 27.2 | > 100 | 30.2
CC(=O)OCC1OC(n2c(=O)n(-c3ccccc3)c(=O)c3cc(Br)cc(Br)c32)C(OC(C)=O)C(OC(C)=O)C1OC(C)=O (stereo not given) | > 100 | > 100 | > 100 | > 100 | > 100 | > 100 | 61.5 | > 100 | > 100 | > 100 | > 100 | > 100 | > 100 | > 100 | > 100
CCOC(=O)C(=Cc1cc(OC)ccc1OC)C(=O)OCC | 12.2 | 15.1 | 10.9 | 14.2 | 23.6 | 17.9 | 21.6 | 22.5 | 17.5 | 23.6 | 11.8 | 21.8 | – | – | 32.5
CCOC(=O)[C@H]1Nc2ccc(Cl)cc2[C@H]2OCC[C@@H]12 | > 100 | > 100 | – | > 100 | > 100 | > 100 | > 100 | > 100 | > 100 | > 100 | > 100 | > 100 | > 100 | > 100 | > 100
Cc1nc2ccccc2c(=O)n1NC(=S)Nc1cccc(Cl)c1 | > 100 | > 100 | > 100 | > 100 | > 100 | > 100 | > 100 | – | – | – | – | > 100 | > 100 | – | –
Cc1nc(-c2nc(C)c(C(=O)NN(C)C)s2)sc1C(=O)NN(C)C | > 100 | > 100 | 91.2 | 38.9 | > 100 | > 100 | > 100 | > 100 | > 100 | > 100 | – | > 100 | > 100 | > 100 | –
CC1(Br)C(=O)NC(=O)N(C2CC(N=[N+]=[N-])C(CO)O2)C1N=[N+]=[N-] (stereo not given) | > 100 | > 100 | > 100 | > 100 | – | > 100 | > 100 | > 100 | > 100 | > 100 | > 100 | > 100 | > 100 | > 100 | > 100
COc1ccc2nc(NC(=O)C(=O)C(C(=O)c3ccccc3-c3ccccc3)C3OC(=O)c4ccccc43)sc2c1 (stereo not given) | 26.3 | 28.9 | 51.9 | – | – | 31 | – | 48.2 | 50.1 | 45.7 | 37.2 | 40.9 | > 100 | > 100 | 71.6
Cc1ccc2c(c1)SC(c1cc3c(cc1Br)OCO3)S2 (stereo not given) | > 31.6 | > 31.6 | > 31.6 | > 31.6 | > 31.6 | > 31.6 | > 31.6 | > 31.6 | > 31.6 | > 100 | > 31.6 | > 31.6 | > 31.6 | > 31.6 | –
O=C1Nc2cc([N+](=O)[O-])ccc2C(=O)N2CCC[C@@H]12 | – | > 100 | > 100 | – | – | – | > 100 | > 100 | – | – | – | – | > 100 | – | –
CCOC(CI)O[C@@H]1C=C[C@H](OC(C)=O)C1 (stereo not given in full) | – | > 100 | > 100 | – | – | – | > 100 | > 100 | – | – | – | – | > 100 | – | –
CN(C)CCNC(=O)Cn1ccc(=O)c2ccc([N+](=O)[O-])cc21 | – | > 100 | > 100 | – | – | – | > 100 | > 100 | – | – | – | – | > 100 | – | –
CN(C)CCCNc1ccnc2cc([N+](=O)[O-])ccc12 | – | 31.9 | > 100 | – | – | – | 12.8 | 29.9 | – | – | – | – | > 100 | – | –
O=C(Nc1nc2ccccc2n1Cc1ccc(Cl)cc1)NC12CC3CC(CC(C3)C1)C2 | 72 | 53.4 | > 100 | 34.7 | 85.4 | > 100 | 28.9 | 60.7 | > 100 | 53.2 | 90.8 | > 100 | > 100 | – | –
